Consider 58 compounds from patent US20130029964A1, “[5, 6] HETEROCYCLIC COMPOUND” (DAIICHI SANKYO COMPANY, LIMITED, priority 2010, published 2013).

In the experiment the test system is ST2 cells, murine bone marrow-derived stromal cells. The experiment is described as follows: Osteoblast differentiation test (ALP activity). The settings on record: Mus musculus, ST-2, 96 h, at 0.1 μg/mL, control group (0.1% DMSO) = 100%, four days of culturing, read-out: alkaline phosphatase activity. The format is cell-based. As to the method: ST2 cells, murine bone marrow-derived stromal cells, (obtained from RIKEN) were used.
In this test, α-MEM media (obtained from GIBCO BRL Cat. No. 10370-021) containing 10% (v/v) of inactivated calf serum (obtained from Hyclone Laboratories, Inc.) and 1% (v/v) of Penicillin-Streptomycin Liquid (obtained from GIBCO BRL Cat. No. 15140-122) (hereinbelow, abbreviated as 10%-FBS-αMEM) were used. In this test, all culturing was performed in a CO2 incubator (37° C., 95% humidity, 5% CO2).
The aforementioned cells were detached with 2 mL of a 0.25% trypsin solution (obtained from GIBCO BRL Cat. No. 15050-065) and dispersed in 10 mL of 10%-FBS-αMEM. Subsequently, the cells were collected by centrifugation (25° C., 800 rpm, five minutes). Then, a cell suspension containing 40000 of the cells/mL of 10%-FBS-αMEM was prepared. The cell suspension was then dispensed into 96-well plates (the product of Falcon), 100 μL per well, at a density of 4000 cells/well, followed by culturing for 24 hours. To the wells, except for the below-described well containing a control group, the compound was dispensed at final concentrations of 0.01, 0.03, 0.1, and 0.3 μg/ml. To the well of a control group, DMSO was dispensed at a final concentration of 0.1% (v/v). After four days of culturing, the activity of alkaline phosphatase (ALP) was measured in each group.
The measurement of ALP activity was performed as follows. That is, the medium in each well of the culture plates was completely removed. Each well was then washed by dispensing 100 μL of Dulbecco's phosphate buffer (obtained from GIBCO BRL Cat. No. 14190-144) and then removing it. A cell lysate solution containing 10 mM MgCl2 and 2% (v/v) TritonX-100 (Sigma) was prepared and dispensed at 50 μL/well, followed by stirring at room temperature for five minutes. An ALP substrate solution containing 50 mM diethanolamine (Wako Pure Chemical Industries, Ltd., Cat. No. 099-03112) and 20 mM p-nitrophenyl phosphate (Wako Pure Chemical Industries, Ltd., Cat. No. 147-02343) was prepared and dispensed at 50 μL/well, and the plates were left to stand at room temperature for 10 minutes. Subsequently, absorbance was measured by a microplate reader (Bio-Rad Laboratories, Inc.). Setting the measurement value of the control group of each plate at 100%, alkaline phosphatase activity (increase (%)) in the test compound-addition group was calculated, which was assessed as the degree of osteoblast differentiation.

Structures are written as SMILES. Counter-ions that a name gives are not always drawn.

In the case of `COC1COCC1OCCOc1ccc(-c2cnc3ccc(C#N)cn23)cc1` (stereo not shown) [Example 114], the activity at 0.1 µg/mL is ≥ 200%.

As to `COCCNc1ccc(-n2cnc3ccccc32)cc1` [Example 6], the activity at 0.1 µg/mL was ≥ 200%.

In the case of `c1cc(-c2ccn3c(-c4ccc(OCCOC5CCOCC5)cc4)cnc3c2)ccn1` [Example 74], the activity at 0.1 µg/mL is ≥ 200%.

On to `N#Cc1ccc2ncc(-c3ccc(OCCOC4CCOCC4)cc3)n2c1` [Example 148], for which the activity at 0.1 µg/mL was ≥ 200%.

Consider `CN(C)S(=O)(=O)c1ccc(-c2ccn3c(-c4ccc(OCCO)cc4)cnc3c2)cc1` [Example 134], for which the activity at 0.1 µg/mL is ≥ 200%.

`CC(=O)N1CC=C(c2ccc3c(c2)ncn3-c2ccc(OCCO)cc2)CC1` [Example 60]: the activity at 0.1 µg/mL was ≥ 200%.

`O=C(c1ccc(-c2ccc3c(c2)ncn3-c2ccc(OCCO)cc2)cn1)N1CCOCC1` [Example 16, 2-(4-{5-[6-(Morpholin-4-ylcarbonyl)pyridin-3-yl]-1H-benzimidazol-1-yl}phenoxy)ethanol]: the activity at 0.1 µg/mL was ≥ 200%.

As for `Cn1cc(-c2ccc3ncc(-c4ccc(NCCOC5CCOCC5)cc4)n3c2)cn1` [Example 136], the activity at 0.1 µg/mL is ≥ 200%.

`OC1COCC1OCCOc1ccc(-c2cnc3ccc(F)cn23)cc1` (stereo not shown) [Example 86]: the activity at 0.1 µg/mL was ≥ 200%.

For `CC(=O)Nc1ccc(-c2ccc3c(c2)ncn3-c2ccc(OCCO)cc2)cc1` [Example 14, N-(4-{1-[4-(2-Hydroxyethoxy)phenyl]-1H-benzimidazol-5-yl}phenyl)acetamide], the activity at 0.1 µg/mL was ≥ 200%.

As for `CC(=O)N1CCN(c2ccc3c(c2)ncn3-c2ccc(OCCO)cc2)CC1` [Example 40], the activity at 0.1 µg/mL was ≥ 200%.

Take `FC(F)Oc1ccc2ncn(-c3ccc(OCCOC[C@H]4COCCO4)cc3)c2c1` [Example 95]: the activity at 0.1 µg/mL is ≥ 200%.

For the compound `O=C(COCCOc1ccc(-n2cnc3ccccc32)cc1)N1CCOCC1` [Example 56], the activity at 0.1 µg/mL is ≥ 200%.

For `c1cc(-c2ccc3ncc(-c4ccc(OCCOC5CCOCC5)cc4)n3c2)ccn1` [Example 141], the activity at 0.1 µg/mL is ≥ 200%.

With `CC(=O)N1CC=C(c2ccn3c(-c4ccc(OCCOC5CCOCC5)cc4)cnc3c2)CC1` [Example 68], the activity at 0.1 µg/mL is ≥ 200%.

Take `COc1cc2ncn(-c3ccc(NCCO)cc3)c2cc1OC` [Example 28]: the activity at 0.1 µg/mL is ≥ 200%.

In the case of `COc1ccc2c(c1)ncn2-c1ccc(OCCO)cc1` [Example 27], the activity at 0.1 µg/mL is ≥ 200%.

Turning to `c1cc(-c2ccc3ncc(-c4ccc(NCCOC5CCOCC5)cc4)n3c2)ccn1` [Example 142], the activity at 0.1 µg/mL is ≥ 200%.

Turning to `Cn1cc(-c2ccn3c(-c4ccc(OCCO)cc4)cnc3c2)cn1` [Example 65], the activity at 0.1 µg/mL is ≥ 200%.

`OCCOc1ccc(-n2cnc3cc(-c4ccccn4)ccc32)cc1` [Example 128]: the activity at 0.1 µg/mL is ≥ 200%.

On to `OCCNc1ccc(-n2cnc3ccccc32)cc1` [Example 97], for which the activity at 0.1 µg/mL was ≥ 200%.

Turning to `c1cc(-c2ccc3c(-c4ccc(OCCOC5CCOCC5)cc4)cnn3c2)ccn1` [Example 127], the activity at 0.1 µg/mL is ≥ 200%.

On to `OCCOc1ccc(-n2cnc3cc(N4CCOCC4)ccc32)cc1` [Example 36], for which the activity at 0.1 µg/mL was ≥ 200%.

As to `OCCOc1ccc(-c2cnc3cc(-c4ccncc4)ccn23)cc1` [Example 72], the activity at 0.1 µg/mL is ≥ 200%.

Consider `CC(=O)n1ccc(-c2ccc3c(c2)ncn3-c2ccc(OCCO)cc2)c1` [Example 62], for which the activity at 0.1 µg/mL was ≥ 200%.

For the compound `OCCOc1ccc(-n2cnc3cc(-c4ccccc4)ccc32)cc1` [Example 41], the activity at 0.1 µg/mL was ≥ 200%.

For `O=C(C1CC1)N1CCC(OCCOC2CCN(c3cnc4ccc(Cl)cn34)CC2)CC1` [Example 138], the activity at 0.1 µg/mL was ≥ 200%.

For the compound `O=C(c1ccc(-c2ccc3c(-c4ccc(OCCO)cc4)cnn3c2)nc1)N1CCOCC1` [Example 146], the activity at 0.1 µg/mL is ≥ 200%.

For the compound `COc1ccn2c(-c3ccc(NCCO)cc3)cnc2c1` [Example 119], the activity at 0.1 µg/mL was ≥ 200%.

As to `O=C(c1ccc(-c2ccn3c(N4CCC(OCCOC5CCOCC5)CC4)cnc3c2)cc1)N1CCOCC1` [Example 17, 7-[4-(Morpholin-4-ylcarbonyl)phenyl]-3-{4-[2-(tetrahydro-2H-pyran-4-yloxy)ethoxy]piperidin-1-yl}imidazo[1,2-a]pyridine], the activity at 0.1 µg/mL was ≥ 200%.

Take `Fc1ccc2ncc(-c3ccc(OCCOCC4CCOCC4)cc3)n2c1` [Example 80]: the activity at 0.1 µg/mL was ≥ 200%.

As to `CC(=O)N1CC=C(c2ccn3c(N4CCC(OCCO)CC4)cnc3c2)CC1` [Example 10, 2-({1-[7-(1-Acetyl-1,2,3,6-tetrahydropyridin-4-yl)imidazo[1,2-a]pyridin-3-yl]piperidin-4-yl}oxy)ethanol hydrochloride], the activity at 0.1 µg/mL is ≥ 200%.

Consider `c1coc(-c2ccc3ncc(-c4ccc(OCCOC5CCOCC5)cc4)n3c2)n1` [Example 150], for which the activity at 0.1 µg/mL was ≥ 200%.

`c1ccn2ncc(-c3ccc(OCCOC4CCOCC4)cc3)c2c1` [Example 147]: the activity at 0.1 µg/mL is ≥ 200%.

Consider `Cn1cc(-c2ccn3c(N4CCC(OCCOC5CCOCC5)CC4)cnc3c2)cn1` [Example 104], for which the activity at 0.1 µg/mL is ≥ 200%.

In the case of `CCOc1ccc2c(c1)ncn2-c1ccc(OCCO)cc1` [Example 30], the activity at 0.1 µg/mL is ≥ 200%.

Turning to `N#Cc1ccc2ncc(-c3ccc(OCCO)cc3)n2c1` [Example 69], the activity at 0.1 µg/mL is ≥ 200%.

Consider `c1ccc2c(c1)ncn2-c1ccc(OCCOC2CCOCC2)cc1` [Example 100], for which the activity at 0.1 µg/mL is ≥ 200%.

With `Fc1ccc2ncc(-c3ccc(OCCOC[C@@H]4COCCO4)cc3)n2c1` [Example 88], the activity at 0.1 µg/mL was ≥ 200%.

In the case of `Fc1ccc2ncc(-c3ccc(OCCO[C@@H]4CCOC4)cc3)n2c1` [Example 110], the activity at 0.1 µg/mL was ≥ 200%.

Take `O=C(c1ccc(-c2ccc3c(c2)ncn3-c2ccc(OCCO)cc2)nc1)N1CCOCC1` [Example 130]: the activity at 0.1 µg/mL was ≥ 200%.

In the case of `N#Cc1ccn2c(-c3ccc(OCCO)cc3)cnc2c1` [Example 75], the activity at 0.1 µg/mL was ≥ 200%.

For `Fc1ccc2ncc(-c3ccc(OCCOC4CCOCC4)cc3)n2c1` [Example 144], the activity at 0.1 µg/mL is ≥ 200%.

In the case of `O=C(c1ccc(-c2ccn3c(-c4ccc(OCCO)cc4)cnc3c2)cc1)N1CCOCC1` [Example 102], the activity at 0.1 µg/mL is ≥ 200%.

As for `CS(=O)(=O)Nc1ccc(-c2ccc3c(c2)ncn3-c2ccc(OCCO)cc2)cc1` [Example 53], the activity at 0.1 µg/mL was ≥ 200%.

`OCCOc1ccc(-c2cnn3cc(-c4ccncc4)ccc23)cc1` [Example 11, 2-[4-(6-Pyridin-4-ylpyrazolo[1,5-a]pyridin-3-yl)phenoxy]ethanol]: the activity at 0.1 µg/mL was ≥ 200%.

With `OCCOc1ccc(-c2cnc3ccccn23)cc1` [Example 115], the activity at 0.1 µg/mL was ≥ 200%.

On to `CS(=O)(=O)N1CC=C(c2ccc3c(c2)ncn3-c2ccc(OCCO)cc2)CC1` [Example 61], for which the activity at 0.1 µg/mL is ≥ 200%.

`CS(=O)(=O)N1CCN(c2ccc3c(c2)ncn3-c2ccc(OCCO)cc2)CC1` [Example 59]: the activity at 0.1 µg/mL is ≥ 200%.

Turning to `N#Cc1ccc2ncc(-c3ccc(OCCOC[C@H]4COCCO4)cc3)n2c1` [Example 93], the activity at 0.1 µg/mL is ≥ 200%.

Take `N#Cc1ccc2ncn(-c3ccc(OCCOC4COCC4O)cc3)c2c1` (stereo not shown) [Example 94]: the activity at 0.1 µg/mL was ≥ 200%.

For `c1cc(-c2ccc3c(c2)ncn3-c2ccc(OCCOC3CCOCC3)cc2)ccn1` [Example 44], the activity at 0.1 µg/mL was ≥ 200%.

As to `CCOc1ccn2c(-c3ccc(OCCO)cc3)cnc2c1` [Example 34], the activity at 0.1 µg/mL was ≥ 200%.

Regarding `Cn1cc(-c2ccc3c(c2)ncn3-c2ccc(OCCO)cc2)cn1` [Example 63], the activity at 0.1 µg/mL was ≥ 200%.

Turning to `CCOc1ccc2c(-c3ccc(OCCO)cc3)cnn2c1` [Example 126], the activity at 0.1 µg/mL was ≥ 200%.

As to `CN(C)C(=O)c1ccc(-c2ccn3c(N4CCC(OCCO)CC4)cnc3c2)cc1` [Example 107], the activity at 0.1 µg/mL is ≥ 200%.

Consider `NC(=O)c1ccc2ncc(-c3ccc(OCCOC4CCOCC4)cc3)n2c1` [Example 19, 3-{4-[2-(Tetrahydro-2H-pyran-4-yloxy)ethoxy]phenyl}imidazo[1,2-a]pyridine-6-carboxamide], for which the activity at 0.1 µg/mL was ≥ 200%.

As for `O=C(c1ccc(-c2ccn3c(-c4ccc(NCCOC5CCOCC5)cc4)cnc3c2)nc1)N1CCOCC1` [Example 132], the activity at 0.1 µg/mL was ≥ 200%.
